Measured values published in paper PMC11597746 (Pharmaceutics, 2024).
Several values for one entry are separate records, joined by “and”; a condition that tells them apart may be missing. Identical values can stand only once. Counter-ions that a name gives are not always drawn. Like-named read-outs stand apart in the source and are kept apart here.

Experiments:
[1] = Plasma pharmacokinetics of PA, GPA and SPA in rats after single oral dose (HPLC-UV, noncompartmental analysis); type: in vivo, rats (Rattus norvegicus, outbred Wistar stock, males)
Method: (§1) Rats (Rattus norvegicus, outbred Wistar stock, males, 14 weeks old) were obtained from Anima Sp. z o.o. SK & ViVARI s.c. They were acclimated for one week in a temperature- and humidity-controlled environment with a 12 h light/dark cycle and had ad libitum access to food and water.
The drugs and vehicle were administered directly into the animals’ stomachs using a gastric probe. Animals received drugs in a sequential manner.
(§2) Blood samples were stored at −80 °C until analysis.
(§3) This approach reduced the number of animals involved in the experiment, adhering to the principles of the 3R concept. […] No other experimental conditions were altered.
The column temperature was maintained at 25 °C, the analytical wavelength (λmax) was set at 254 nm, and the injection volume was 50 μL. Theophylline was used as the IS.
The total time of analysis for each run was 10 min. Separation was achieved by isocratic elution of the mobile phase, comprising acetonitrile (93:7, v/v) and sodium sulfate 0.05 M pH 2.2 (adjusted with 85% orthophosphoric acid) at a flow rate of 1.0 mL/min through a BDS Hypersil® C18 column (150 mm × 4.6 mm, 5.0 μm particle size) (Thermo Electron Corporation®, Waltham, MA, USA).
(§4) Plasma data were subjected to noncompartmental pharmacokinetic analysis (NCA) using the PKanalix 2024R1 software (Lixoft, France). The maximum plasma concentration (Cmax) and time to reach Cmax (Tmax) were obtained directly from the concentration–time curves. The elimination rate constant (kel) was calculated by linear regression of the final linear part of plasma concentration against time. The elimination half-life (t0.5) was calculated from the formula t0.5 = 0.693/kel. The area under the concentration–time curve (AUC) was calculated using the linear trapezoidal rule. All data were presented as mean ± SD.

[2] = IIIPA group: PA 100 mg/kg b.w. + vehiculum, n = 8, mean ± SD, cited from earlier work
[3] = mean ± SD, cited from earlier work
[4] = Plasma pharmacokinetics of REG, M-2 and M-5 in rats after single oral dose (UPLC-MS/MS, noncompartmental analysis); type: in vivo, rats (Rattus norvegicus, outbred Wistar stock, males); details: for AUC0–∞ increased by / Cmax increased by: after the administration of PA (IREG+PA vs. IIREG); for AUC0–t / AUC0–∞ / Cmax: metabolite of REG
Method: as §1
The rats were divided into three groups: one group received REG and PA (IREG+PA), another group received REG (IIREG), and the last group received PA (IIIPA). […] [15] to the IREG+PA and IIIPA groups. The drugs and vehicle were administered directly into the animals’ stomachs using a gastric probe. Animals received drugs in a sequential manner.
as §2, §3
A Cortecs UPLC C18 column (2.1 × 50 mm, 1.6 μm) was equipped with an Acquity UPLC BEH C18 VanGuard pre-column (2.1 × 5 mm, 3/Pk, Waters Corporation). The injection volume was 5 μL. The temperature of the autosampler was 4 °C, and the temperature of the column was 40 °C. Mobile phase A comprised 0.1% aqueous FA solution (v/v) and phase B of ACN:MeOH and 0.1% FA aqueous solution at 1:3 (v/v) ratio. The total run time was 5 min.
The gradient was as follows: 0–0.5 min, with 10% B; 0.5–3 min, 95% B; 3–4 min, 95% B; 4–4.1 min, 10% B; and 4.1–5 min, 10% B. The flow rate was 0.4 mL/min. Positive electrospray ionization (ESI) multiple reaction monitoring (MRM) experiments were conducted for sample analysis. […] The Xevo TQ-S micro mass spectrometer settings were used: source temperature 150 °C, desolvation temperature 600 °C, nitrogen gas flow 900 L/h, and capillary voltage 3.6 kV.
as §4

[5] = after administration in tablet form; cited from earlier work
plasma proteins = details: cited from earlier work
[6] = patients taking lorlatinib compared to controls; cited from earlier work
[7] = IREG+PA group: REG 20 mg/kg b.w. + PA 100 mg/kg b.w., n = 8, mean ± SD
[8] = IREG+PA group: REG 20 mg/kg b.w. + PA 100 mg/kg b.w., single p.o. dose, n = 8, mean ± SD
[9] = PA co-administered with REG vs. PA alone
[10] = metabolite of REG, IIREG group: vehiculum + REG 20 mg/kg b.w., single oral dose, n = 8
[11] = IREG+PA group: REG 20 mg/kg b.w. + PA 100 mg/kg b.w., single oral dose, n = 8, mean ± SD
[12] = IIREG group: vehiculum + REG 20 mg/kg b.w., single oral dose, n = 8
[13] = regorafenib and paracetamol vs. control group

Compound: CC(=O)Nc1ccc(O[C@@H]2O[C@H](C(=O)O)[C@@H](O)[C@H](O)[C@H]2O)cc1 [GPA, paracetamol glucuronide]
- Ratio GPA/PA AUC0–t [1, 7]: 1.50 ± 0.30 (19.7)
- Ratio GPA/PA AUC0–∞ [1, 7]: 1.53 ± 0.34 (21.9)
- Ratio GPA/PA Cmax [1, 7]: 1.02 ± 0.19 (18.9)
- AUC0–t [1, 8]: 97.9 ± 16.13 (16.5) µg × h/mL
- AUC0–∞ [1, 8]: 102.00 ± 18.50 (18.1) µg × h/mL
- Cmax [1, 8]: 27.11 ± 3.05 (11.25) µg/mL
- GPA/PA ratio for Cmax decreased by ([1]; IREG+PA vs. IIIPA): 63.73%
- Gmean ratio (90% CI) of AUC0–t ([1]; IREG+PA vs. IIIPA): 0.72 (0.62; 0.84)
- Gmean ratio (90% CI) of AUC0–∞ ([1]; IREG+PA vs. IIIPA): 0.67 (0.55; 0.80)
- Gmean ratio (90% CI) of Cmax ([1]; IREG+PA vs. IIIPA): 0.71 (0.64; 0.77)
- Gmean ratio (90% CI) of ratio GPA/PA AUC0–t ([1]; IREG+PA vs. IIIPA): 0.87 (0.70; 1.09)
- Gmean ratio (90% CI) of ratio GPA/PA AUC0–∞ ([1]; IREG+PA vs. IIIPA): 0.88 (0.68; 1.13)
- Gmean ratio (90% CI) of ratio GPA/PA Cmax ([1]; IREG+PA vs. IIIPA): 0.62 (0.50; 0.77)
- AUC0–t decreased by [1, 9]: 39.16%
- AUC0–∞ decreased by [1, 9]: 51.1% and 51.07%
- Ratio GPA/PA AUC0–t [2]: 1.75 ± 0.47 (27.1)
- Ratio GPA/PA AUC0–∞ [2]: 1.78 ± 0.54 (30.6)
- Ratio GPA/PA Cmax [2]: 1.67 ± 0.41 (24.8)
- AUC0–t ([2]; single p.o. dose): 136.24 ± 23.58 (17.3) µg × h/mL
- AUC0–∞ ([2]; single p.o. dose): 154.09 ± 35.58 (23.09) µg × h/mL
- Cmax ([2]; single p.o. dose): 38.38 ± 3.75 (9.8) µg/mL

Compound: NC(=O)c1cc(Oc2ccc(NC(=O)Nc3ccc(Cl)c(C(F)(F)F)c3)c(F)c2)cc[n+]1[O-] [M-5, N-desmethyl-regorafenib-N-oxide]
- AUC0–t [3, 10]: 803.19 ± 177.02 (22.0) ng × h/mL
- AUC0–∞ [3, 10]: 847.88 ± 178.97 (21.1) ng × h/mL
- AUC0–∞ increased by [4]: 1730%
- Cmax increased by [4]: 2130%
- AUC0–t [4, 11]: 15,054.83 ± 7479.43 (49.7) ng × h/mL
- AUC0–∞ [4, 11]: 15,506.44 ± 8001.74 (51.6) ng × h/mL
- Cmax [4, 11]: 585.96 ± 193.12 (33.0) ng/mL

Compound: CNC(=O)c1cc(Oc2ccc(NC(=O)Nc3ccc(Cl)c(C(F)(F)F)c3)c(F)c2)ccn1 [REG, regorafenib]
- average bioavailability [5]: 69%
- AUC0–∞ [3, 12]: 36.85 ± 5.83 (15.8) µg × h/mL
- Cmax [3, 12]: 1.87 ± 0.31 (16.5) µg/mL
- Vd/F [3, 12]: 2.05 ± 0.61 (29.7) L
- kel [3, 12]: 0.11 ± 0.03 (22.8) 1/h
- Sum of the Cmax values for REG, M-2, and M-5 ([3]; IIREG group): 2078.95 ± 691.36 ng/mL
- bind to plasma proteins (plasma proteins): 99.5%
- t0.5 [4, 11]: 10.67 ± 2.48 (23.28) h
- AUC0–∞ increased by [4]: 1140%
- Cmax increased by [4]: 890%

Compound: CC(=O)Nc1ccc(O)cc1 [PA, paracetamol, reference compound]
- Cmax [1, 8]: 27.08 ± 3.88 (14.3) µg/mL
- t0.5 [1, 8]: 1.14 ± 0.45 (39.7) h
- AUC0–t decreased by [1, 9]: 20.72%
- AUC0–t decreased by ([1]; PA co-administered with REG vs. PA alone, listed as paracetamol): 17.16%
- decrease in Vd/F [1, 13]: 54.04%
- decrease in t0.5 [1, 13]: 49.56%
- decrease in AUC0–∞ [6]: 43%
- decrease in Cmax [6]: 15%
- Vd/F ([2]; single p.o. dose): 1.98 ± 0.63 mL/g
- t0.5 ([2]; single p.o. dose): 2.26 ± 0.70 (31.0) h
- tmax ([2]; single p.o. dose): 0.81 ± 0.58 (71.2) h

Compound: CC(=O)Nc1ccc(OS(=O)(=O)O)cc1 [SPA, paracetamol sulfate]
- Ratio SPA/PA AUC0–t [1, 7]: 2.18 ± 0.50 (22.9)
- Ratio SPA/PA AUC0–∞ [1, 7]: 2.40 ± 0.68 (28.4)
- Ratio SPA/PA Cmax [1, 7]: 1.14 ± 0.12 (10.1)
- AUC0–t [1, 8]: 140.89 ± 17.87 (12.7) µg × h/mL
- AUC0–∞ [1, 8]: 157.71 ± 24.35 (15.4) µg × h/mL
- Cmax [1, 8]: 30.61 ± 3.94 (12.9) µg/mL
- Gmean ratio (90% CI) of AUC0–t ([1]; IREG+PA vs. IIIPA): 2.13 (1.58; 2.86)
- Gmean ratio (90% CI) of AUC0–∞ ([1]; IREG+PA vs. IIIPA): 2.04 (1.54; 2.71)
- Gmean ratio (90% CI) of Cmax ([1]; IREG+PA vs. IIIPA): 1.67 (1.29; 2.15)
- Gmean ratio (90% CI) of ratio SPA/PA AUC0–t ([1]; IREG+PA vs. IIIPA): 2.58 (1.84; 3.60)
- Gmean ratio (90% CI) of ratio SPA/PA AUC0–∞ ([1]; IREG+PA vs. IIIPA): 2.69 (1.94; 3.72)
- Gmean ratio (90% CI) of ratio SPA/PA Cmax ([1]; IREG+PA vs. IIIPA): 1.47 (1.04; 2.09)
- SPA/PA ratio for AUC0–t increased by ([1]; IREG+PA vs. IIIPA): 139.52%
- SPA/PA ratio for AUC0–∞ increased by ([1]; IREG+PA vs. IIIPA): 155.32%
- AUC0–t increased by [1, 9]: 95.89%
- AUC0–∞ increased by [1, 9]: 91.35%
- Cmax increased by [1, 9]: 57.70%
- Ratio SPA/PA AUC0–t [2]: 0.91 ± 0.43 (47.3)
- Ratio SPA/PA AUC0–∞ [2]: 0.94 ± 0.40 (42.4)
- Ratio SPA/PA Cmax [2]: 0.88 ± 0.46 (52.7)
- AUC0–t ([2]; single p.o. dose): 71.92 ± 31.03 (43.2) µg × h/mL
- AUC0–∞ ([2]; single p.o. dose): 82.42 ± 32.71 (39.7) µg × h/mL
- Cmax ([2]; single p.o. dose): 19.41 ± 7.05 (36.4) µg/mL

Compound: CNC(=O)c1cc(Oc2ccc(NC(=O)Nc3ccc(Cl)c(C(F)(F)F)c3)c(F)c2)cc[n+]1[O-] [M-2, regorafenib-N-oxide]
- AUC0–t [3, 10]: 9615.36 ± 2275.41 (23.7) ng × h/mL
- AUC0–∞ [3, 10]: 11,469.93 ± 2133.05 (18.6) ng × h/mL
- AUC0–∞ increased by [4]: 170%
- Cmax increased by [4]: 220%
- AUC0–t [4, 11]: 31,036.39 ± 16,132.08 (52.0) ng × h/mL
- AUC0–∞ [4, 11]: 31,434.01 ± 16,129.53 (51.3) ng × h/mL
- Cmax [4, 11]: 1087.58 ± 471.76 (43.4) ng/mL
